In PubChem BioAssay AID2060912 (Molecular Pharmacology Branch, DTP, NCI, 2025):

Test system: HUVEC/MSC spheroids viability
Assay: Human HUVEC/MSC cell line growth inhibition [KRAS2];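 as to viability, T/C: percent of DMSO vehicle control luminescence so 100% = untreated viability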
Settings: for IC50: curve of first compound; for viability, T/C: stronger effect = lower value
In short: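 Spheroids of pooled-donor HUVEC and hMSC (passage ≤5) without tumour cells were treated with KRAS-pathway inhibitors alone and combined with targeted agents. Top concentration was at or near clinical Cmax, or 10 microM when Cmax was unknown, descending in half-log steps.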

`Cn1nccc1Nc1nccc(-c2cc3c(s2)C(C)(C)N(CCN2CCOCC2)C3=O)n1` + CC1OCC2(CCN(c3cnc(Sc4ccnc(N)c4Cl)c(N)n3)CC2)C1N gave an IC50 (second compound 0.0316 µM) of 2080 nM, an IC50 (second compound 0.1 µM) of 2730 nM and an IC50 (second compound 0.316 µM) of 2530 nM. The IC50 (second compound 1 µM) was 1740 nM, the IC50 (second compound 3.16 µM) was 1350 nM and the IC50 (second compound 10 µM) was 430 nM. It also gave a viability, T/C (second compound 0.0316 µM, first compound 0.0316 µM) of 105%, a viability, T/C (second compound 0.0316 µM, first compound 0.1 µM) of 127% and a viability, T/C (second compound 0.0316 µM, first compound 0.316 µM) of 108%. The viability, T/C (second compound 0.0316 µM, first compound 1 µM) was 78%, the viability, T/C (second compound 0.0316 µM, first compound 3.16 µM) was 34.5% and the viability, T/C (second compound 0.0316 µM, first compound 10 µM) was 7.19%. For the same compound, the viability, T/C (second compound 0.1 µM, first compound 0.0316 µM) was 117%, the viability, T/C (second compound 0.1 µM, first compound 0.1 µM) was 127% and the viability, T/C (second compound 0.1 µM, first compound 0.316 µM) was 124%. The viability, T/C (second compound 0.1 µM, first compound 1 µM) was 96.3%, the viability, T/C (second compound 0.1 µM, first compound 3.16 µM) was 43.8% and the viability, T/C (second compound 0.1 µM, first compound 10 µM) was 6.82%. The viability, T/C (second compound 0.316 µM, first compound 0.0316 µM) was 112%, the viability, T/C (second compound 0.316 µM, first compound 0.1 µM) was 120% and the viability, T/C (second compound 0.316 µM, first compound 0.316 µM) was 105%. The viability, T/C (second compound 0.316 µM, first compound 1 µM) was 78.8%, the viability, T/C (second compound 0.316 µM, first compound 3.16 µM) was 44.2% and the viability, T/C (second compound 0.316 µM, first compound 10 µM) was 5.45%. For the same compound, the viability, T/C (second compound 1 µM, first compound 0.0316 µM) was 95.9%, the viability, T/C (second compound 1 µM, first compound 0.1 µM) was 97.6% and the viability, T/C (second compound 1 µM, first compound 0.316 µM) was 107%. It also gave a viability, T/C (second compound 1 µM, first compound 1 µM) of 60.7%, a viability, T/C (second compound 1 µM, first compound 3.16 µM) of 34.6% and a viability, T/C (second compound 1 µM, first compound 10 µM) of 4.73%. For the same compound, the viability, T/C (second compound 3.16 µM, first compound 0.0316 µM) was 79.7%, the viability, T/C (second compound 3.16 µM, first compound 0.1 µM) was 90.2% and the viability, T/C (second compound 3.16 µM, first compound 0.316 µM) was 80.3%. It also gave a viability, T/C (second compound 3.16 µM, first compound 1 µM) of 57.7%, a viability, T/C (second compound 3.16 µM, first compound 3.16 µM) of 25.5% and a viability, T/C (second compound 3.16 µM, first compound 10 µM) of 8.64%. The viability, T/C (second compound 10 µM, first compound 0.0316 µM) was 73%, the viability, T/C (second compound 10 µM, first compound 0.1 µM) was 67.4% and the viability, T/C (second compound 10 µM, first compound 0.316 µM) was 56.1%. For the same compound, the viability, T/C (second compound 10 µM, first compound 1 µM) was 34.2%, the viability, T/C (second compound 10 µM, first compound 3.16 µM) was 21.5% and the viability, T/C (second compound 10 µM, first compound 10 µM) was 4.23%.

In the case of `CC(=O)OC12COC1CC(O)C1(C)C(=O)C(O)C3=C(C)C(OC(=O)C(O)C(NC(=O)OC(C)(C)C)c4ccccc4)CC(O)(C(OC(=O)c4ccccc4)C21)C3(C)C` (centres undefined) + CNCc1ccccc1-c1csc(C(C)Nc2nc(C)nc3cc(OC)c(OC)cc23)c1, the IC50 (second compound 0.0316 µM) is reported as less than 9.49 nM, the IC50 (second compound 0.1 µM) is reported as less than 9.49 nM and the IC50 (second compound 0.316 µM) is reported as 39.6 nM. The IC50 (second compound 1 µM) was greater than 3000 nM, the IC50 (second compound 3.16 µM) was greater than 3000 nM and the IC50 (second compound 10 µM) was less than 9.49 nM. The viability, T/C (second compound 0.0316 µM, first compound 0.00949 µM) was 40.6%, the viability, T/C (second compound 0.0316 µM, first compound 0.03 µM) was 40.6% and the viability, T/C (second compound 0.0316 µM, first compound 0.0949 µM) was 49.7%. The viability, T/C (second compound 0.0316 µM, first compound 0.3 µM) was 53%, the viability, T/C (second compound 0.0316 µM, first compound 0.949 µM) was 49.1% and the viability, T/C (second compound 0.0316 µM, first compound 3 µM) was 54.2%. It also gave a viability, T/C (second compound 0.1 µM, first compound 0.00949 µM) of 44.2%, a viability, T/C (second compound 0.1 µM, first compound 0.03 µM) of 43.3% and a viability, T/C (second compound 0.1 µM, first compound 0.0949 µM) of 51.8%. It also gave a viability, T/C (second compound 0.1 µM, first compound 0.3 µM) of 45.1%, a viability, T/C (second compound 0.1 µM, first compound 0.949 µM) of 42.9% and a viability, T/C (second compound 0.1 µM, first compound 3 µM) of 50%. For the same compound, the viability, T/C (second compound 0.316 µM, first compound 0.00949 µM) was 44.8%, the viability, T/C (second compound 0.316 µM, first compound 0.03 µM) was 56.5% and the viability, T/C (second compound 0.316 µM, first compound 0.0949 µM) was 54.6%. The viability, T/C (second compound 0.316 µM, first compound 0.3 µM) was 43.3%, the viability, T/C (second compound 0.316 µM, first compound 0.949 µM) was 48.8% and the viability, T/C (second compound 0.316 µM, first compound 3 µM) was 49%. The viability, T/C (second compound 1 µM, first compound 0.00949 µM) was 47.3%, the viability, T/C (second compound 1 µM, first compound 0.03 µM) was 62.2% and the viability, T/C (second compound 1 µM, first compound 0.0949 µM) was 68.9%. For the same compound, the viability, T/C (second compound 1 µM, first compound 0.3 µM) was 54.3%, the viability, T/C (second compound 1 µM, first compound 0.949 µM) was 55.4% and the viability, T/C (second compound 1 µM, first compound 3 µM) was 61.9%. The viability, T/C (second compound 3.16 µM, first compound 0.00949 µM) was 78.1%, the viability, T/C (second compound 3.16 µM, first compound 0.03 µM) was 73.5% and the viability, T/C (second compound 3.16 µM, first compound 0.0949 µM) was 73.8%. For the same compound, the viability, T/C (second compound 3.16 µM, first compound 0.3 µM) was 77.6%, the viability, T/C (second compound 3.16 µM, first compound 0.949 µM) was 76.8% and the viability, T/C (second compound 3.16 µM, first compound 3 µM) was 56.7%. For the same compound, the viability, T/C (second compound 10 µM, first compound 0.00949 µM) was 0.32%, the viability, T/C (second compound 10 µM, first compound 0.03 µM) was 0.36% and the viability, T/C (second compound 10 µM, first compound 0.0949 µM) was 0.39%. It also gave a viability, T/C (second compound 10 µM, first compound 0.3 µM) of 0.34%, a viability, T/C (second compound 10 µM, first compound 0.949 µM) of 0.34% and a viability, T/C (second compound 10 µM, first compound 3 µM) of 1.75%.
